Source: PubChem BioAssay AID328 (DTP/NCI, 2004)
Several values for one entry are separate records, joined by “and”; a condition that tells them apart may be missing. Identical values can stand only once. Inconclusive results and toxic doses are left out.

Test system: BDF1 mice, P388 leukemia ip, median survival T/C
Test: NCI In Vivo Anticancer Drug Screen. Data for tumor model P388 Leukemia (intraperitoneal) in B6D2F1 (BDF1) mice
Conditions: endpoint: median survival time, higher = longer survival
Method in brief: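 Mice carrying the transplantable tumour receive compound or vehicle. Survival is followed in each arm, and the treated measure is divided by the vehicle measure.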

[1] = dose: 100.0 mg/kg/injection, schedule: Q01DX009 (ip), vehicle: saline
[2] = dose: 200.0 mg/kg/injection, schedule: Q01DX009 (ip), vehicle: saline
[3] = dose: 400.0 mg/kg/injection, schedule: Q01DX009 (ip), vehicle: saline
[4] = dose: 25.0 mg/kg/injection, schedule: Q01DX009 (ip), vehicle: Klucel (hydroxypropylcellulose) (HPC)
[5] = dose: 50.0 mg/kg/injection, schedule: Q01DX001 (ip), vehicle: saline sonified
[6] = dose: 100.0 mg/kg/injection, schedule: Q01DX001 (ip), vehicle: saline sonified
[7] = dose: 200.0 mg/kg/injection, schedule: Q01DX001 (ip), vehicle: saline sonified

For `CCOC(=O)Cc1c[nH]c2ccc(N(CCCl)CCCl)cc12`, the T/C (dose: 0.11 mg/kg/injection, schedule: Q04DX003 (ip), vehicle: Klucel (hydroxypropylcellulose) (HPC)) was 116 % of control, the T/C (dose: 0.17 mg/kg/injection, schedule: Q04DX003 (ip), vehicle: Klucel (hydroxypropylcellulose) (HPC)) was 120 % of control and the T/C (dose: 0.26 mg/kg/injection, schedule: Q04DX003 (ip), vehicle: Klucel (hydroxypropylcellulose) (HPC)) was 100 % of control. The T/C (dose: 0.5 mg/kg/injection, schedule: Q01DX009 (ip), vehicle: Klucel (hydroxypropylcellulose) (HPC)) was 154 % of control, the T/C (dose: 0.8 mg/kg/injection, schedule: Q01DX009 (ip), vehicle: Klucel (hydroxypropylcellulose) (HPC)) was 175 % of control and the T/C (dose: 0.9 mg/kg/injection, schedule: Q04DX003 (ip), vehicle: Klucel (hydroxypropylcellulose) (HPC)) was 154 % of control. The T/C (dose: 1.3 mg/kg/injection, schedule: Q01DX009 (ip), vehicle: Klucel (hydroxypropylcellulose) (HPC)) was 250 % of control, the T/C (dose: 1.4 mg/kg/injection, schedule: Q04DX003 (ip), vehicle: Klucel (hydroxypropylcellulose) (HPC)) was 163 % of control and the T/C (dose: 2.0 mg/kg/injection, schedule: Q01DX009 (ip), vehicle: Klucel (hydroxypropylcellulose) (HPC)) was 272 % of control. For the same molecule, the T/C (dose: 2.2 mg/kg/injection, schedule: Q04DX003 (ip), vehicle: Klucel (hydroxypropylcellulose) (HPC)) was 204 % of control, the T/C (dose: 3.0 mg/kg/injection, schedule: Q01DX009 (ip), vehicle: Klucel (hydroxypropylcellulose) (HPC)) was 230 % of control and 272 % of control and the T/C (dose: 3.3 mg/kg/injection, schedule: Q04DX003 (ip), vehicle: Klucel (hydroxypropylcellulose) (HPC)) was 222 % of control. For the same molecule, the T/C (dose: 4.5 mg/kg/injection, schedule: Q01DX009 (ip), vehicle: Klucel (hydroxypropylcellulose) (HPC)) was 154 % of control, the T/C (dose: 5.0 mg/kg/injection, schedule: Q04DX003 (ip), vehicle: Klucel (hydroxypropylcellulose) (HPC)) was 245 % of control and 272 % of control and the T/C (dose: 6.0 mg/kg/injection, schedule: Q01DX009 (ip), vehicle: Klucel (hydroxypropylcellulose) (HPC)) was 107 % of control. The T/C (dose: 7.5 mg/kg/injection, schedule: Q04DX003 (ip), vehicle: Klucel (hydroxypropylcellulose) (HPC)) was 240 % of control, the T/C (dose: 8.0 mg/kg/injection, schedule: Q04DX003 (ip), vehicle: Klucel (hydroxypropylcellulose) (HPC)) was 272 % of control and the T/C (dose: 12.5 mg/kg/injection, schedule: Q04DX003 (ip), vehicle: Klucel (hydroxypropylcellulose) (HPC)) was 272 % of control.
`CCOC(N)=O` was tested, and the T/C [1] was 120 % of control, the T/C (dose: 125.0 mg/kg/injection, schedule: Q01DX010 (ip), vehicle: saline) was 154 % of control and the T/C [2] was 90 % of control. For the same molecule, the T/C (dose: 250.0 mg/kg/injection, schedule: Q01DX010 (ip), vehicle: saline) was 154 % of control, the T/C [3] was 100 % of control and the T/C (dose: 500.0 mg/kg/injection, schedule: Q01DX010 (ip), vehicle: saline) was 113 % of control.
With `CCOc1ccc(/C=N\N=C\c2ccc(OCC)cc2)cc1` the T/C (dose: 12.5 mg/kg/injection, schedule: Q01DX009 (ip), vehicle: Klucel (hydroxypropylcellulose) (HPC)) was 100 % of control, the T/C [4] was 96 % of control and the T/C (dose: 100.0 mg/kg/injection, schedule: Q04DX003 (ip), vehicle: Klucel (hydroxypropylcellulose) (HPC)) was 109 % of control. The T/C (dose: 200.0 mg/kg/injection, schedule: Q04DX003 (ip), vehicle: Klucel (hydroxypropylcellulose) (HPC)) was 90 % of control and the T/C (dose: 400.0 mg/kg/injection, schedule: Q04DX003 (ip), vehicle: Klucel (hydroxypropylcellulose) (HPC)) was 90 % of control.
`COc1cc(N(CCCl)CCCl)ccc1/C=N\NC(=O)c1cccnc1` was tested, and the T/C [4] was 98 % of control, the T/C (dose: 50.0 mg/kg/injection, schedule: Q01DX009 (ip), vehicle: Klucel (hydroxypropylcellulose) (HPC)) was 97 % of control and the T/C (dose: 100.0 mg/kg/injection, schedule: Q01DX009 (ip), vehicle: Klucel (hydroxypropylcellulose) (HPC)) was 112 % of control.
`CC(C(=O)c1ccc(Cl)cc1)C(O)(C(F)(F)F)C(F)(F)F` (configuration not stated) was tested, and the T/C (dose: 100.0 mg/kg/injection, schedule: Q01DX001 (ip), vehicle: Klucel (hydroxypropylcellulose) (HPC)) was 100 % of control, the T/C (dose: 200.0 mg/kg/injection, schedule: Q01DX001 (ip), vehicle: Klucel (hydroxypropylcellulose) (HPC)) was 113 % of control and the T/C (dose: 400.0 mg/kg/injection, schedule: Q01DX001 (ip), vehicle: Klucel (hydroxypropylcellulose) (HPC)) was 113 % of control.
In the case of `CCOC(=O)CNC(=O)NC12CC3CC(CC(C3)C1)C2`, the T/C [1] is reported as 119 % of control, the T/C [2] is reported as 104 % of control and the T/C [3] is reported as 102 % of control.
For `Cc1ccc(S(=O)(=O)N/N=C/C(O)C(O)C(O)CO)cc1` (configuration not stated), the T/C (dose: 100.0 mg/kg/injection, schedule: Q01DX001 (ip), vehicle: saline) was 110 % of control, the T/C (dose: 200.0 mg/kg/injection, schedule: Q01DX001 (ip), vehicle: saline) was 105 % of control and the T/C (dose: 400.0 mg/kg/injection, schedule: Q01DX001 (ip), vehicle: saline) was 120 % of control.
`COc1ccc2c(=O)c3c(=O)c4c(=O)oc5ccccc5c4oc3oc2c1` was tested, and the T/C (dose: 50.0 mg/kg/injection, schedule: Q01DX009 (ip), vehicle: saline with Tween-80) was 88 % of control, the T/C (dose: 100.0 mg/kg/injection, schedule: Q01DX009 (ip), vehicle: saline with Tween-80) was 88 % of control and the T/C (dose: 200.0 mg/kg/injection, schedule: Q01DX009 (ip), vehicle: saline with Tween-80) was 88 % of control.
With `CC[C@@H](O)C[C@H]1CCC[C@@]2(C[C@@H]3OC(=O)/C=C/[C@@](C)(O)[C@@H](O)[C@H](C)[C@@H](O)[C@H](OC4CCC(N(C)C)C(C)O4)[C@@H](O)[C@](C)(O)CCCCC/C=C/[C@@H]4CC(C)(C)O[C@@]4(O)C[C@H](O2)[C@H]3C)O1` (some centres not stated) the T/C (dose: 0.04 mg/kg/injection, schedule: Q04DX003 (ip), vehicle: saline) was 91 % of control, the T/C (dose: 0.06 mg/kg/injection, schedule: Q04DX003 (ip), vehicle: saline) was 95 % of control and the T/C (dose: 0.1 mg/kg/injection, schedule: Q04DX003 (ip), vehicle: saline) was 108 % of control. For the same molecule, the T/C (dose: 7.5 micrograms/kg/injection, schedule: Q01DX009 (ip), vehicle: saline) was 100 % of control, the T/C (dose: 7.5 micrograms/kg/injection, schedule: Q04DX003 (ip), vehicle: saline) was 104 % of control and the T/C (dose: 15.0 micrograms/kg/injection, schedule: Q01DX009 (ip), vehicle: saline) was 109 % of control. For the same molecule, the T/C (dose: 15.0 micrograms/kg/injection, schedule: Q04DX003 (ip), vehicle: saline) was 104 % of control, the T/C (dose: 30.0 micrograms/kg/injection, schedule: Q01DX009 (ip), vehicle: saline) was 104 % of control and the T/C (dose: 30.0 micrograms/kg/injection, schedule: Q04DX003 (ip), vehicle: saline) was 113 % of control.
With `CCOC(=O)C(C)[P+](c1ccccc1)(c1ccccc1)c1ccccc1` (configuration not stated) the T/C (dose: 1.0 mg/kg/injection, schedule: Q01DX009 (ip), vehicle: saline) was 115 % of control, the T/C (dose: 1.5 mg/kg/injection, schedule: Q01DX009 (ip), vehicle: saline) was 103 % of control and the T/C (dose: 1.5 mg/kg/injection, schedule: Q04DX003 (ip), vehicle: saline) was 90 % of control. For the same molecule, the T/C (dose: 2.25 mg/kg/injection, schedule: Q01DX009 (ip), vehicle: saline) was 100 % of control, the T/C (dose: 3.0 mg/kg/injection, schedule: Q01DX009 (ip), vehicle: saline) was 118 % of control and the T/C (dose: 3.0 mg/kg/injection, schedule: Q04DX003 (ip), vehicle: saline) was 104 % of control. For the same molecule, the T/C (dose: 6.0 mg/kg/injection, schedule: Q04DX003 (ip), vehicle: saline) was 90 % of control.
For `CCc1ccc(OS(=O)(=O)c2ccc([N+](=O)[O-])cc2)cc1`, the T/C (dose: 75.0 mg/kg/injection, schedule: Q01DX001 (ip), vehicle: saline with Tween-80) was 104 % of control, the T/C (dose: 150.0 mg/kg/injection, schedule: Q01DX001 (ip), vehicle: saline with Tween-80) was 100 % of control and the T/C (dose: 300.0 mg/kg/injection, schedule: Q01DX001 (ip), vehicle: saline with Tween-80) was 100 % of control.
With `CCOC(=O)Nc1cc(NC(c2ccccc2)c2ccccc2)c2[nH]cnc2n1` the T/C (dose: 15.0 mg/kg/injection, schedule: Q04DX003 (ip), vehicle: saline with Tween-80) was 87 % of control and the T/C (dose: 60.0 mg/kg/injection, schedule: Q04DX003 (ip), vehicle: saline with Tween-80) was 108 % of control.
With `CN1C(c2ccc(Cl)cc2)OCC1(C)C` (configuration not stated) the T/C [5] was 100 % of control, the T/C [6] was 100 % of control and the T/C [7] was 100 % of control.
In the case of `O=C1NC(=O)N(c2ccccc2)C(=O)/C1=C/c1ccccc1`, the T/C [5] is reported as 110 % of control, the T/C [6] is reported as 105 % of control and the T/C [7] is reported as 100 % of control.
`N#Cc1ccc(NCCO)cc1` was tested, and the T/C (dose: 100.0 mg/kg/injection, schedule: Q04DX003 (ip), vehicle: saline with Tween-80) was 111 % of control, the T/C (dose: 200.0 mg/kg/injection, schedule: Q04DX003 (ip), vehicle: saline with Tween-80) was 100 % of control and the T/C (dose: 400.0 mg/kg/injection, schedule: Q04DX003 (ip), vehicle: saline with Tween-80) was 111 % of control.
For `COc1cc(/C=C2\SC(=S)N(CCCN3CCOCC3)C2=O)ccc1O`, the T/C (dose: 12.5 mg/kg/injection, schedule: Q01DX009 (ip), vehicle: suspension in saline) was 86 % of control, the T/C (dose: 25.0 mg/kg/injection, schedule: Q01DX009 (ip), vehicle: suspension in saline) was 101 % of control and the T/C (dose: 50.0 mg/kg/injection, schedule: Q01DX009 (ip), vehicle: suspension in saline) was 99 % of control.
